Where two headings read alike, the source gives them in different places.
Legend:
[1] = CHI Log D procedure; type: physicochemical; conditions: pH 7.4
[2] = target: T1, full-length beta-Catenin (Uniprot ID P35222) (Homo sapiens, UniProt P35222); assay: Fluorescence polarization IC50 (beta-catenin / 5FAM-TCF4 10-53 competition); type: binding
T1 construct: 10 nM full-length beta-Catenin (Uniprot ID P35222)
T1 sequence (P35222 1-781): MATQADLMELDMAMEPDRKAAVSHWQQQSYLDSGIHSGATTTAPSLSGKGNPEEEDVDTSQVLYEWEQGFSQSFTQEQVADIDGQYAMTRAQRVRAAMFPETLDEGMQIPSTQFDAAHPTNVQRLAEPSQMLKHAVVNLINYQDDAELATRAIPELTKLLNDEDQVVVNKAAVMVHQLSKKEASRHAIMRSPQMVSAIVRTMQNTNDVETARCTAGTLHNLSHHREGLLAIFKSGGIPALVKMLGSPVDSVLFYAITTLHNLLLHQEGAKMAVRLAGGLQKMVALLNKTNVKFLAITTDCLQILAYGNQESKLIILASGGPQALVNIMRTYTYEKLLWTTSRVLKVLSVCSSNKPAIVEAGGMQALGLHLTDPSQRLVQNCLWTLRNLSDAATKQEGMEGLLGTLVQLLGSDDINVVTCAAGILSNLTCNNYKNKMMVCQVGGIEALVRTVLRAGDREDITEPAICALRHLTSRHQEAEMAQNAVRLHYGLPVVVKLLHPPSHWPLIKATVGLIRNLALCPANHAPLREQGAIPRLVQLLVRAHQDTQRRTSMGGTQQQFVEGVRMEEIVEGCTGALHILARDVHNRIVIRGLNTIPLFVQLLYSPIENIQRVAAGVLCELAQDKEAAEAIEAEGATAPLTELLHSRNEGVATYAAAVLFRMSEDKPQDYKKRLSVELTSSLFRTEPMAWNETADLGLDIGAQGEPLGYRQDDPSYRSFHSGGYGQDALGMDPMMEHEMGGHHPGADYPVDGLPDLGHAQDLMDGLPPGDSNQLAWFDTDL

[3] = fluorescence polarization, read-out: beta-Catenin FP IC50

SMILES | CHI Log D [1] | IC50 [2, 3] [µM] | IC50 ([2]; read-out: FP EC50) [µM] | IC50 ([2]; read-out: beta-Catenin FP IC50) [µM]
CC[C@H](C)[C@H](NC(=O)[C@H](CCC(N)=O)NC(=O)[C@H](Cc1csc2ccccc12)NC(=O)[C@H](Cc1ccccc1)NC(=O)[C@]1(C)CCCCCCC=CCCCC2(CCCC=CC[C@]3(CCCN3C(C)=O)C(=O)N[C@@H](CC(=O)O)C(=O)N[C@@H](CC(C)C)C(=O)N2)C(=O)N[C@@H](CC(=O)O)C(=O)N[C@@H](CCC(=O)O)C(=O)N[C@@H](C)C(=O)N[C@@H](C)C(=O)N[C@@H](Cc2ccccc2)C(=O)N[C@@H](CC(N)=O)C(=O)N1)C(N)=O (stereo partly drawn) [I-732, Ac-PL3-Asp-Leu-B5-Asp-Glu-Ala-Ala-Phe-Asn-S8-Phe-BztA-Gln-Ile-NH2] | 2.121 | 4.22 | 4.22 | 
CC[C@@H](C)[C@@H](NC(=O)[C@H](CCC(N)=O)NC(=O)[C@H](Cc1csc2ccccc12)NC(=O)[C@H](Cc1ccccc1)NC(=O)[C@]1(C)CCCCCCC=CCCCC2(CCCC=CC[C@]3(CCCN3C(C)=O)C(=O)N[C@@H](CC(=O)O)C(=O)N[C@@H](CC(C)C)C(=O)N2)C(=O)N[C@@H](CC(=O)O)C(=O)N[C@@H](CCC(=O)O)C(=O)N[C@@H](C)C(=O)N[C@@H](C)C(=O)N[C@@H](Cc2ccccc2)C(=O)N[C@@H](CC(N)=O)C(=O)N1)C(N)=O (stereo partly drawn) [I-734, Ac-PL3-Asp-Leu-B5-Asp-Glu-Ala-Ala-Phe-Asn-S8-Phe-BztA-Gln-dIle-NH2] | 2.713 | 0.37 | 0.37 | 
CC(=O)N1CCC[C@]12CC=CCCCC1(CCCC=CCCCCCC[C@@](C)(C(=O)N[C@@H](Cc3ccccc3)C(=O)N[C@@H](Cc3csc4ccccc34)C(=O)N[C@@H](CCC(N)=O)C(=O)NC(C)(C)C(N)=O)NC(=O)[C@H](CC(N)=O)NC(=O)[C@H](Cc3ccccc3)NC(=O)[C@H](C)NC(=O)[C@H](C)NC(=O)[C@H](CCC(=O)O)NC(=O)[C@H](CC(=O)O)NC1=O)NC(=O)[C@H](CC(C)C)NC(=O)[C@H](CC(=O)O)NC2=O (stereo partly drawn) [I-736, Ac-PL3-Asp-Leu-B5-Asp-Glu-Ala-Ala-Phe-Asn-S8-Phe-BztA-Gln-Aib-NH2] | 2.722 | 0.44 | 0.44 | 
CC[C@H](C)[C@H](NC(=O)[C@H](Cc1c[nH]cn1)NC(=O)[C@H](Cc1csc2ccccc12)NC(=O)[C@H](Cc1ccccc1)NC(=O)[C@]1(C)CCCCCCC=CCCCC2(CCCC=CC[C@]3(CCCN3C(C)=O)C(=O)N[C@@H](CC(=O)O)C(=O)N[C@@H](CC(C)C)C(=O)N2)C(=O)N[C@@H](CC(=O)O)C(=O)N[C@@H](CCC(=O)O)C(=O)N[C@@H](C)C(=O)N[C@@H](C)C(=O)N[C@@H](Cc2ccccc2)C(=O)N[C@@H](CC(N)=O)C(=O)N1)C(N)=O (stereo partly drawn) [I-740, Ac-PL3-Asp-Leu-B5-Asp-Glu-Ala-Ala-Phe-Asn-S8-Phe-BztA-His-Ile-NH2] | 2.822 | 0.376 | 0.376 | 
CC(=O)N1CCC[C@]12CC=CCCCC1(CCCC=CCCCCCC[C@@](C)(C(=O)N[C@@H](Cc3ccccc3)C(=O)N[C@@H](Cc3csc4ccccc34)C(=O)N(C)[C@@H](CO)C(N)=O)NC(=O)[C@H](CC(N)=O)NC(=O)[C@H](Cc3ccccc3)NC(=O)[C@H](C)NC(=O)[C@H](C)NC(=O)[C@H](CCC(=O)O)NC(=O)[C@H](CC(=O)O)NC1=O)NC(=O)[C@H](CC(C)C)NC(=O)[C@H](CC(=O)O)NC2=O (stereo partly drawn) [I-759, Ac-PL3-Asp-Leu-B5-Asp-Glu-Ala-Ala-Phe-Asn-S8-Phe-BztA-NMeS-NH2] | 2.582 |  | 1.53 | 1.53
CC(=O)N1CCC[C@]12CC=CCCCC1(CCCC=CCCCCCC[C@@](C)(C(=O)N[C@@H](Cc3ccccc3)C(=O)N[C@@H](Cc3csc4ccccc34)C(=O)N(C)[C@@H](CO)C(N)=O)NC(=O)[C@H](CC(N)=O)NC(=O)[C@H](Cc3ccccc3)NC(=O)[C@H](C)NC(=O)[C@H](C)NC(=O)[C@H](CCC(=O)O)NC(=O)[C@H](CC(=O)O)NC1=O)NC(=O)[C@H](CC(C)C)NC(=O)[C@H](CC(=O)O)NC2=O (stereo partly drawn) [I-760, Ac-PL3-Asp-Leu-B5-Asp-Glu-Ala-Ala-Phe-Asn-S8-Phe-BztA-NMeS-NH2] | 2.66 |  | 0.608 | 0.608
CC(=O)N1CCC[C@]12CC=CCCCC1(CCCC=CCCCOC(=O)N3CC[C@@](C(=O)N[C@@H](Cc4ccsc4)C(=O)N[C@@H](Cc4csc5ccccc45)C(=O)N[C@@H](CCC(N)=O)C(N)=O)(C3)NC(=O)[C@H](CCC(N)=O)NC(=O)[C@H](Cc3ccccc3)NC(=O)[C@H](C)NC(=O)[C@H](C)NC(=O)[C@H](CC(=O)O)NC(=O)[C@H](CC(=O)O)NC1=O)NC(=O)[C@H](CC(C)(C)C)NC(=O)[C@H](CC(=O)O)NC2=O (stereo partly drawn) [I-763, Ac-PL3-Asp-Npg-B5-Asp-Asp-Ala-Ala-Phe-Gln-PyrS2-3Thi-BztA-Gln-NH2] | 1.967 |  |  | 0.005

The remaining molecules from weak to strong by IC50 ([2]; read-out: FP EC50), led by results:

CHI Log D [1] | IC50 [2, 3] [µM] | IC50 ([2]; read-out: FP EC50) [µM] | IC50 ([2]; read-out: beta-Catenin FP IC50) [µM] | SMILES
2.666 |  | 0.115 | 0.115 | CC(=O)N1CCC[C@]12CC=CCCCC1(CCCC=CCCCCCC[C@@](C)(C(=O)N[C@@H](Cc3ccccc3)C(=O)N[C@@H](Cc3csc4ccccc34)C(=O)N[C@@H](C(N)=O)[C@H](C)O)NC(=O)[C@H](CC(N)=O)NC(=O)[C@H](Cc3ccccc3)NC(=O)[C@H](C)NC(=O)[C@H](C)NC(=O)[C@H](CCC(=O)O)NC(=O)[C@H](CC(=O)O)NC1=O)NC(=O)[C@H](CC(C)C)NC(=O)[C@H](CC(=O)O)NC2=O (stereo partly drawn) [I-754, Ac-PL3-Asp-Leu-B5-Asp-Glu-Ala-Ala-Phe-Asn-S8-Phe-BztA-dThr-NH2]
2.557 | 0.112 | 0.112 |  | CC(=O)N1CCC[C@]12CC=CCCCC1(CCCC=CCCCCCC[C@@](C)(C(=O)N[C@@H](Cc3ccccc3)C(=O)N[C@@H](Cc3csc4ccccc34)C(=O)N[C@H](Cc3c[nH]cn3)C(N)=O)NC(=O)[C@H](CC(N)=O)NC(=O)[C@H](Cc3ccccc3)NC(=O)[C@H](C)NC(=O)[C@H](C)NC(=O)[C@H](CCC(=O)O)NC(=O)[C@H](CC(=O)O)NC1=O)NC(=O)[C@H](CC(C)C)NC(=O)[C@H](CC(=O)O)NC2=O (stereo partly drawn) [I-744, Ac-PL3-Asp-Leu-B5-Asp-Glu-Ala-Ala-Phe-Asn-S8-Phe-BztA-dHis-NH2]
2.546 |  | 0.064 | 0.064 | CC(=O)N1CCC[C@]12CC=CCCCC1(CCCC=CCCCCCC[C@@](C)(C(=O)N[C@@H](Cc3ccccc3)C(=O)N[C@@H](Cc3csc4ccccc34)C(=O)N[C@H](CC(N)=O)C(N)=O)NC(=O)[C@H](CC(N)=O)NC(=O)[C@H](Cc3ccccc3)NC(=O)[C@H](C)NC(=O)[C@H](C)NC(=O)[C@H](CCC(=O)O)NC(=O)[C@H](CC(=O)O)NC1=O)NC(=O)[C@H](CC(C)C)NC(=O)[C@H](CC(=O)O)NC2=O (stereo partly drawn) [I-757, Ac-PL3-Asp-Leu-B5-Asp-Glu-Ala-Ala-Phe-Asn-S8-Phe-BztA-dAsn-NH2]
2.366 | 0.056 | 0.056 |  | CC(=O)N1CCC[C@]12CC=CCCCC1(CCCC=CCCCCCC[C@@](C)(C(=O)N[C@@H](Cc3ccccc3)C(=O)N[C@@H](Cc3csc4ccccc34)C(=O)N[C@@H](CCC(N)=O)C(=O)N[C@@H](C)C(N)=O)NC(=O)[C@H](CC(N)=O)NC(=O)[C@H](Cc3ccccc3)NC(=O)[C@H](C)NC(=O)[C@H](C)NC(=O)[C@H](CCC(=O)O)NC(=O)[C@H](CC(=O)O)NC1=O)NC(=O)[C@H](CC(C)C)NC(=O)[C@H](CC(=O)O)NC2=O (stereo partly drawn) [I-729, Ac-PL3-Asp-Leu-B5-Asp-Glu-Ala-Ala-Phe-Asn-S8-Phe-BztA-Gln-Ala-NH2]
2.459 | 0.054 | 0.054 |  | CC(=O)N1CCC[C@]12CC=CCCCC1(CCCC=CCCCCCC[C@@](C)(C(=O)N[C@@H](Cc3ccccc3)C(=O)N[C@@H](Cc3csc4ccccc34)C(=O)N[C@H](C(N)=O)[C@@H](C)O)NC(=O)[C@H](CC(N)=O)NC(=O)[C@H](Cc3ccccc3)NC(=O)[C@H](C)NC(=O)[C@H](C)NC(=O)[C@H](CCC(=O)O)NC(=O)[C@H](CC(=O)O)NC1=O)NC(=O)[C@H](CC(C)C)NC(=O)[C@H](CC(=O)O)NC2=O (stereo partly drawn) [I-748, Ac-PL3-Asp-Leu-B5-Asp-Glu-Ala-Ala-Phe-Asn-S8-Phe-BztA-Thr-NH2]
2.607 | 0.049 | 0.049 |  | CC[C@H](C)[C@@H]1NC(=O)[C@H](CC(=O)O)NC(=O)[C@]2(CC=CCCCC3(CCCC=CCCCCCC[C@@](C)(C(=O)N[C@@H](Cc4ccsc4)C(=O)N[C@@H](Cc4csc5ccccc45)C(=O)N[C@@H](CCC(N)=O)C(N)=O)NC(=O)[C@H](CC(N)=O)NC(=O)[C@H](Cc4ccccc4)NC(=O)[C@H](C)NC(=O)[C@H](C)NC(=O)[C@H](CN(CC(=O)O)CC(F)(F)F)NC(=O)[C@H](CC(=O)O)NC3=O)NC1=O)CCCN2C(C)=O (stereo partly drawn) [I-700, Ac-PL3-Asp-Ile-B5-Asp-TfeGA-Ala-Ala-Phe-Asn-S8-3Thi-BztA-Gln-NH2]
